This is an account of results in publication PMC6238005, “Sigma-2 Receptor/TMEM97 and PGRMC-1 Increase the Rate of Internalization of LDL by LDL Receptor through the Formation of a Ternary Complex” (Scientific Reports, 2018).

Like-named read-outs stand apart in the source and are kept apart here.

Assay [1] has as its target T1, σ2R (Homo sapiens, UniProt Q5BJF2).
T1 construct: cell membranes were incubated with [^3H]DTG; endogenous in cells; host or cells: HeLa control clone (non-specific CRISPR/Cas9 plasmid plus lentiCas9-Blast), membrane preparation
To be noted: cited from earlier work; for Kd: no reference given.

The subject of a further assay is HeLa cells. In words: Radiolabeled LDL uptake assay. As to conditions: control HeLa cells, ligands 1 nM - 500 nM. Format: cell-based. The protocol:
Radiolabeled LDL was prepared by incubating human LDL (50 μg/mL) (LP2, Millipore) with [^3H]cholesterol (final concentration 3 μCi/mL) in serum-free MEM for 24 hours at 37 °C, filtered using a 0.2 μm filter, and used immediately. Care was taken not to vortex LDL to avoid aggregation of particles.
Cells were plated on 6-well plates (1 × 10^5 cells per well) or for 96-well plates (1 × 10^4 cells per well) in MEM with 10% FBS, 100 I.U./ml penicillin, 100 µg/ml streptomycin, 2mM L-glutamine, and 1X MEM non-essential amino acids. After 24 hours, media was removed and cells were incubated with MEM containing 10% lipoprotein-depleted serum (LPDS) (AAJ65182AMG, Fisher Scientific) for an additional 24 hours. […] Cells were washed 3 times in PBS, incubated with scintillation fluid overnight, and counts per minute (cpm) were determined using a scintillation counter MicroBeta[2] Microplate counter 2450.

In assay [2] the test system is residual DTG binding site. In words: Saturation binding on TMEM97/PGRMC1 double KO HeLa cell membranes. To be noted: Double KO/Cas9 HeLa cell membranes, N.B. = no binding. How it is done:
(§1) For the cell membrane preparation for receptor binding, the cell pellets were taken out from the freezer, rinsed with 10 mL ice-cold PBS solution, and homogenized by using Wheaton overhead stirrer (120 Vac Overhead Stirrer, Millville, NJ, USA) at the speed of 2 for 30 sec. Then the cell solution was transferred to a 50 mL conical tube and centrifuged for 20 min at 31,000 × g, 4 °C. After centrifugation, the supernatant was discarded and the pellets were resuspended in 1 mL ice-cold PBS solution and stored at −80 °C freezer.
(§2) After incubation, the bound ligands were collected with a M-24 Brandel filtration system (Brandel, Gaithersburg, MD, USA) on the glass fiber papers (Whatman grade 934-AH, GE Healthcare Bio-Sciences, Pittsburgh, PA), and counted with a MicroBeta[2] Microplate counter 2450 or Wizard2 Automatic Gamma Counter 2470. All the Kd and Bmax values were calculated from a nonlinear regression method with Prism, and the protein concentrations were determined by the method of Lowry et al.[4] with BSA as a standard.

For assay [3], the system named is residual DTG binding site. The experiment in a line: Saturation binding on TMEM97 KO HeLa cell membranes. As to conditions: for binding to TMEM97 KO HeLa cells: TMEM97 KO versus control, all three guide RNA sequences; for Kd: TMEM97 KO/Cas9 HeLa cell membranes, saturation binding, N.B. = no binding. How it is done: as §1, §2
The target in assay [4] is T1, σ2R. In words: Saturation binding on PGRMC1 KO HeLa cell membranes. As to conditions: PGRMC1 KO/Cas9 HeLa cell membranes. How it is done:
as §1, §2

Assay [5] has as its target T1, σ2R. In words: Saturation binding on control (Scramble/Cas9) HeLa cell membranes. The protocol: as §1, §2
Where [6] appears, read: σ2R, ligands previously described, read-out: Kd.
[7] abbreviates: control (Cas9) HeLa cell membranes, Supplementary Figure 2, duplicates, n=3.

T1 sequence (Q5BJF2 whole entry): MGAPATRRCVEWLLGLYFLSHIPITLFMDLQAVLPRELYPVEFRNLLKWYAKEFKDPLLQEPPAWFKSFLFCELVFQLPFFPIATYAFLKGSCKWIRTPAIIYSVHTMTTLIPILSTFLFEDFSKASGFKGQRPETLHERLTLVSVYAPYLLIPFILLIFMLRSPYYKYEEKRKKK

`Cc1ccc2c(c1)[C@H]1CN(C)CC[C@H]1N2C(=O)CSc1nnnn1-c1ccc(Cl)cc1` [AG-205]: at σ2R [1] (against σ2R, read-out: Kd against σ2R), the dissociation constant (Kd) is around 1000 nM. In addition, the Ki on σ2R [1] (displacing DTG, no unit and reference not given) is around 1260 nM.
`COc1cc2c(cc1OC)CN(CCCCNC(=O)c1cc(C)ccc1OC)CC2` [RHM-1]: the dissociation constant Kd at σ2R [1] (setting [6]) is around 0.66 nM.
For the compound `COc1cc2c(cc1OC)CN(CCCCNC(=O)c1cc(I)cc(OC)c1OC)CC2` [RHM-4, N-(4-(6,7-dimethoxy-3,4-dihydroisoquinolin-2(1H)-yl)butyl)-2,3-dimethoxy-5-iodo-benzamide], in the assay with HeLa cells, the “effect on uptake of LDL labeled with [3H]cholesterol” value was “blocking the uptake of LDL”. Also, on σ2R [1] (setting [6]), the Kd is around 0.2 nM.
As to `COc1ccc(C)cc1NC(=O)OC1CC2CCCC(C1)N2CCCCCCCCCCN` (stereo not drawn) [SW43], the equilibrium dissociation constant (Kd) at σ2R [1] (setting [6]) was around 12 nM.
Consider `Cc1ccccc1N=C(N)Nc1ccccc1C` [[^3H]DTG], for which the dissociation constant (Kd) in assay [2] (read-out: Kd) worked out at 403 ± 110 nM; in assay [3] (read-out: Kd), 302 ± 80.2 nM. For the same compound, in assay [3], the “binding to TMEM97 KO HeLa cells” value is reported as “large, but incomplete, reduction”.
Consider `COc1cc2c(cc1OC)CN(CCCCNC(=O)c1cc(I)cc(OC)c1OC)CC2` [[^125I]RHM-4, [^125I]N-(4-(6,7-dimethoxy-3,4-dihydroisoquinolin-2(1 H)-yl)butyl)-2,3-dimethoxy-5-iodo-benzamide], for which the dissociation constant Kd was 2.66 ± 0.12 nM on σ2R [4] (saturation binding); 0.88 ± 0.04 nM on σ2R [5] (Scramble/Cas9 control HeLa cell membranes, saturation binding, 1 μM (+)-pentazocine to mask σ1R for [3H]DTG); 1.1 ± 0.2 nM on σ2R [5] (setting [7]).
Take `COc1cc2c(cc1OC)CN(CCCCNC(=O)c1cc([125I])cc(OC)c1OC)CC2` [[^125I]RHM-4, [^125I]N-(4-(6,7-dimethoxy-3,4-dihydroisoquinolin-2(1 H)-yl)butyl)-2,3-dimethoxy-5-iodo-benzamide]: the Kd entry in assay [2] and in assay [3] was “N.B” each time. For the same compound, the Bmax at σ2R [4] worked out at 2475 ± 51 fmol/mg; on σ2R [5] (Scramble/Cas9 control HeLa cell membranes) it was 2545 ± 37 fmol/mg; on σ2R [5] (setting [7]), 2234.0 fmol/mg. The “binding to TMEM97 KO HeLa cells” value in assay [3] was “complete reduction in binding”.
